How the values were obtained:
HER2 WT = biological target: T1, HER2 WT (Homo sapiens, UniProt P04626); test: Enzymatic assay HER2 WT (method a); assay type: biochemical; details: [HER2 WT]=12.5 nM, [ATP]=25 μM, [Peptide 22]=1 μM
T1 construct: purchased ProQinase, Freiburg, Germany ERBB2 0108-0000-1
Summary of the method: (§1)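 Microfluidic mobility-shift kinase assay with Peptide 22 (1 μM) in HEPES pH 7.5, MnCl2, MgCl2, Tween 20, TCEP. HER2 WT 12.5 nM and HER2 YVMA 5 nM each used 25 μM ATP; EGFR WT 2 nM used 1 mM ATP. IC50 came from initial-velocity (0–3600 s) percent inhibition, fitted to a variable-slope model.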

EGFR = EGFR (Homo sapiens, UniProt P00533); test: EGFR signaling (pEGFR Tyr1068/total EGFR MSD) in A431 cells; assay type: cell-based; design: endogenous in cells; host or cells: A431, N87; details: for EC50: A431 cells, read-out: A431 pEGFR EC50; for Selectivity A431 EC50/BT474 EC50: ratio A431 pEGFR EC50 to BT474 pHER2 EC50; for Selectivity A431 EC50/HEKYVMA EC50: ratio A431 pEGFR EC50 to HEK YVMA pHER2 EC50
Summary of the method: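 Serum-starved A431 cells were pretreated 1.5 h in 1% FBS with compound (0.005–10 μM, 0.1% DMSO), then stimulated with 100 ng/mL human EGF for 10 min. Lysate pEGFR Tyr1068 was measured by MSD and normalized to total EGFR as % DMSO control; EC50 from variable-slope sigmoidal fit.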

HER2YVMA = HER2YVMA (Homo sapiens, UniProt P04626, INS775YVMA); test: Enzymatic assay HER2YVMA (method b); assay type: biochemical; design: purchased Viva biotech, Shanghai, China custom purification; details: [HER2YVMA]=5 nM, [ATP]=25 μM, [Peptide 22]=1 μM
Summary of the method: as §1

Chain of EGFR (P00533 25-1210): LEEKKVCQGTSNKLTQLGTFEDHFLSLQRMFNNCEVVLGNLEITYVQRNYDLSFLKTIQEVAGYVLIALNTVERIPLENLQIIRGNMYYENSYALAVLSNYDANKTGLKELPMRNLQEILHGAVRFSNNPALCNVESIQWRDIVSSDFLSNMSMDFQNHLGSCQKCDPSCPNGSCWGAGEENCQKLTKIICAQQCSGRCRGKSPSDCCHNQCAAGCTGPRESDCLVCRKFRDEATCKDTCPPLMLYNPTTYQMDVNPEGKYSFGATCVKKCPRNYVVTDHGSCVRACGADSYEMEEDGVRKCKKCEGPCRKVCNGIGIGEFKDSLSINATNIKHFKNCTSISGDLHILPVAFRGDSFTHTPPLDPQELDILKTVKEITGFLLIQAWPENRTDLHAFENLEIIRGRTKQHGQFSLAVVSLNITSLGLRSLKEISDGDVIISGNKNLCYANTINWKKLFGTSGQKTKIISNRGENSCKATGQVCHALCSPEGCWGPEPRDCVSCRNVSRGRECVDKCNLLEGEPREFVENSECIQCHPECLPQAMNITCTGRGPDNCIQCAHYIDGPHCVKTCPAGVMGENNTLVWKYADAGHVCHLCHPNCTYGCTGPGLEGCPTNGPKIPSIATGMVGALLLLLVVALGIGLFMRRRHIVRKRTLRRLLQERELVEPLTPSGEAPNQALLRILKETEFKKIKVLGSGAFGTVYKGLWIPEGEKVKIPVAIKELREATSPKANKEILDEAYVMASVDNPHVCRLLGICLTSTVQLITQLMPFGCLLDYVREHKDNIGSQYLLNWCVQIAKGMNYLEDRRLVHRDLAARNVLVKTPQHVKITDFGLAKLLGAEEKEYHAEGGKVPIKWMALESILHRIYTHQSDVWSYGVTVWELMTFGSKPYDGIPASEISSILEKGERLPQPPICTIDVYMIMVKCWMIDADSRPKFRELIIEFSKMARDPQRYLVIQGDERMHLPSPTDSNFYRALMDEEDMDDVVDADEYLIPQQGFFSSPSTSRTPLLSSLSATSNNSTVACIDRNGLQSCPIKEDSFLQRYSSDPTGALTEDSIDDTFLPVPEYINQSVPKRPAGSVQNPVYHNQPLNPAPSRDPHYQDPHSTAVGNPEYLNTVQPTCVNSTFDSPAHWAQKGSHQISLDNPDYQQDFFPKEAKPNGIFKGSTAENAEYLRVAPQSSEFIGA
Chain of HER2YVMA (P04626 with tags, fused parts or gaps INS775YVMA): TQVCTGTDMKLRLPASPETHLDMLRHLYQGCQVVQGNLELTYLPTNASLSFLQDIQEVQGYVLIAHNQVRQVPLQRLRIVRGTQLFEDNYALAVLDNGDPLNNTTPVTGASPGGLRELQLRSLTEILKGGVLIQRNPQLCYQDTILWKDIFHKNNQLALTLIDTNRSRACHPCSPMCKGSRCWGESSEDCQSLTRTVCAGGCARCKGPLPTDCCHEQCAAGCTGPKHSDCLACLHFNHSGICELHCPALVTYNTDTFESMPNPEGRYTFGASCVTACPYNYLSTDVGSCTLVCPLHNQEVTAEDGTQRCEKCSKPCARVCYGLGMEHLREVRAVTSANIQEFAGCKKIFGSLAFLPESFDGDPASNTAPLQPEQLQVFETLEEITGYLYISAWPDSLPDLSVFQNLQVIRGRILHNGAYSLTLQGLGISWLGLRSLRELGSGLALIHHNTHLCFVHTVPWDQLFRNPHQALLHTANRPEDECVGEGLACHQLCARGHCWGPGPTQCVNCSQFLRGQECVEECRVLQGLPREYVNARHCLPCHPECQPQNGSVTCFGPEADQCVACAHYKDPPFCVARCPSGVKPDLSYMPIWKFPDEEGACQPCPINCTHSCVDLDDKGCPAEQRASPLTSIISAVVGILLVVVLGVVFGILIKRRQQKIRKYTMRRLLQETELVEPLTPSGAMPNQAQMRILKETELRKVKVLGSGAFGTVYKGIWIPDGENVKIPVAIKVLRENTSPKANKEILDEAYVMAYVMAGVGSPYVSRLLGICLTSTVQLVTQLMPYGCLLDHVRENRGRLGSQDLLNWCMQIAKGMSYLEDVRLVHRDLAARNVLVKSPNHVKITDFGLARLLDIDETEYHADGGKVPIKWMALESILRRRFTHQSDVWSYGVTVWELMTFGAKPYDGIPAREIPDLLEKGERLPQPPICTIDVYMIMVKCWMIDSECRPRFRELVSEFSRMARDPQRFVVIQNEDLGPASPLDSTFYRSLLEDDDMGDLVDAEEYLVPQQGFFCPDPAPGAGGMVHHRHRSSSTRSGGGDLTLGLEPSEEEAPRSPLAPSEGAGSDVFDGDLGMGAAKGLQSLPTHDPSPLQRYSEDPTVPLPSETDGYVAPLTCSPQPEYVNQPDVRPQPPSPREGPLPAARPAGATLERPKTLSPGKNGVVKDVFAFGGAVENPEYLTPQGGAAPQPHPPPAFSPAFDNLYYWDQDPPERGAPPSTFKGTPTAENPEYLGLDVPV
T1 sequence (P04626 23-1255): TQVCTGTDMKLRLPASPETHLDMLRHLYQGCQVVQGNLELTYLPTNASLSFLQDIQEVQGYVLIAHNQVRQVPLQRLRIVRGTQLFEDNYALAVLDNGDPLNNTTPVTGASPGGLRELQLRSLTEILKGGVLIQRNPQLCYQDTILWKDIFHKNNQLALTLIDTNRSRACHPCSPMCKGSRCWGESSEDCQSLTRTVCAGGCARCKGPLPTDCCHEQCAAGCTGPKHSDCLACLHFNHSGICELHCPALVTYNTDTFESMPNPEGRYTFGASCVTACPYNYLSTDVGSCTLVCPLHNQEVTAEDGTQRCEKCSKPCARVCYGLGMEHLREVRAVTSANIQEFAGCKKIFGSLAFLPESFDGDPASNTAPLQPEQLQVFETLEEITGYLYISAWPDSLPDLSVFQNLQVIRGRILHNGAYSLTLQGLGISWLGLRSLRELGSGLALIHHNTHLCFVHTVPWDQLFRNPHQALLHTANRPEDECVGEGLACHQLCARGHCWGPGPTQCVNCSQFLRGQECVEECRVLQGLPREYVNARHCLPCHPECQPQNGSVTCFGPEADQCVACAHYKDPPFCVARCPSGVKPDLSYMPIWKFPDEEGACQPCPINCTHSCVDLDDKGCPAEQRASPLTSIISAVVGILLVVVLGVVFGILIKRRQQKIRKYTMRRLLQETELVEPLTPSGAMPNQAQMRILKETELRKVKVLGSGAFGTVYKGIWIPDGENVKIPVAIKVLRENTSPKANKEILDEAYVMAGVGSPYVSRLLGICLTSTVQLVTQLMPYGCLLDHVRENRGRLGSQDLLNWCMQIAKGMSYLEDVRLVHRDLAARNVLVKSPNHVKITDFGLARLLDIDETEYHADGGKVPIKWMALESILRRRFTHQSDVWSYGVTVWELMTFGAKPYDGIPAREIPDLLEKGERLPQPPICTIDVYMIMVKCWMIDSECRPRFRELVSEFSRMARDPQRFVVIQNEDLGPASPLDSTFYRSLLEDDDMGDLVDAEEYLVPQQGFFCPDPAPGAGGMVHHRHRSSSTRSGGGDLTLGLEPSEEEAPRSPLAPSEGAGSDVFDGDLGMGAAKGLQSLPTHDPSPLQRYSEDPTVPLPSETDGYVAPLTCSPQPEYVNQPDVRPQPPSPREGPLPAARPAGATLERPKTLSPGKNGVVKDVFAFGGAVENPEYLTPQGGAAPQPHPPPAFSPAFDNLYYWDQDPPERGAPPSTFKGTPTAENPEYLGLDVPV

Row | Structure (SMILES) | IC50 (HER2 WT) [nM] | EC50 (EGFR) [nM] | Selectivity A431 EC50/BT474 EC50 (EGFR) | Selectivity A431 EC50/HEKYVMA EC50 (EGFR) | IC50 (HER2YVMA) [nM]
1 | Cc1ccc(Oc2ccc(Nc3ncnc4sc5c(c34)CCN(C(=O)/C=C/CN(CCO)CCO)C5)cc2C)cn1 [Compound 37] | < 100 | > 10000 | A (A: ≥100) | B (B: ≥ 20 and < 100) | < 100
2 | Cc1ccc(Oc2ccc(Nc3ncnc4sc5c(c34)CCN(C(=O)/C=C/CNC3COC3)C5)cc2C)cn1 [Compound 38] | < 100 | 100 to 1000 | C (C: ≥ 10 and < 20) | D (D: ≥ 5 and < 10) | < 100
3 | CNC(=O)CNC/C=C/C(=O)N1CCc2c(sc3ncnc(Nc4ccc(Oc5ccc(C)nc5)c(C)c4)c23)C1 [Compound 39] | < 100 | 1000 to 10000 | C (C: ≥ 10 and < 20) | D (D: ≥ 5 and < 10) | < 100
4 | Cc1ccc(Oc2ccc(Nc3ncnc4sc5c(c34)CCN(C(=O)/C=C/CNC3CC3)C5)cc2C)cn1 [Compound 40] | < 100 | < 100 | B (B: ≥ 20 and < 100) | B (B: ≥ 20 and < 100) | < 100
5 | Cc1ccc(Oc2ccc(Nc3ncnc4sc5c(c34)CCN(C(=O)/C=C/CN3CCCC3C(N)=O)C5)cc2C)cn1 (centres unmarked) [Compound 41] | < 100 | < 100 | B (B: ≥ 20 and < 100) | C (C: ≥ 10 and < 20) | < 100
6 | Cc1ccc(Oc2ccc(Nc3ncnc4sc5c(c34)CCN(C(=O)/C=C/CN3CCCOCC3)C5)cc2C)cn1 [Compound 42] | < 100 | 100 to 1000 | B (B: ≥ 20 and < 100) | B (B: ≥ 20 and < 100) | < 100
7 | Cc1ccc(Oc2ccc(Nc3ncnc4sc5c(c34)CCN(C(=O)/C=C/CN3CC(O)CO3)C5)cc2C)cn1 (centres unmarked) [Compound 43] | 100 to 1000 | > 10000 | B (B: ≥ 20 and < 100) | C (C: ≥ 10 and < 20) | 100 to 1000
8 | Cc1ccc(Oc2ccc(Nc3ncnc4sc5c(c34)CCN(C(=O)/C=C/CN3C4CCC3CC4)C5)cc2C)cn1 [Compound 44] | < 100 | 100 to 1000 | D (D: ≥ 5 and < 10) | E (E: >1 and < 5) | < 100
9 | Cc1ccc(Oc2ccc(Nc3ncnc4sc5c(c34)CCN(C(=O)/C=C/CNCCS(C)(=O)=O)C5)cc2C)cn1 [Compound 45] | < 100 | 100 to 1000 | C (C: ≥ 10 and < 20) | D (D: ≥ 5 and < 10) | < 100
10 | CCN1CCN(C/C=C/C(=O)N2CCc3c(sc4ncnc(Nc5ccc(Oc6ccc(C)nc6)c(C)c5)c34)C2)CC1 [Compound 46] | 100 to 1000 | 1000 to 10000 | B (B: ≥ 20 and < 100) | C (C: ≥ 10 and < 20) | 100 to 1000
11 | Cc1ccc(Oc2ccc(Nc3ncnc4sc5c(c34)CCN(C(=O)/C=C/CNC3CCOC3)C5)cc2C)cn1 (centres unmarked) [Compound 47] | < 100 | 100 to 1000 | C (C: ≥ 10 and < 20) | C (C: ≥ 10 and < 20) | < 100
12 | Cc1ccc(Oc2ccc(Nc3ncnc4sc5c(c34)CCN(C(=O)/C=C/CNCC3CN(C)CCO3)C5)cc2C)cn1 (centres unmarked) [Compound 48] | < 100 | 100 to 1000 | B (B: ≥ 20 and < 100) | B (B: ≥ 20 and < 100) | < 100
13 | Cc1ccc(Oc2ccc(Nc3ncnc4sc5c(c34)CCN(C(=O)/C=C/CNCc3cc(C)n[nH]3)C5)cc2C)cn1 [Compound 49] | < 100 | 100 to 1000 | B (B: ≥ 20 and < 100) | D (D: ≥ 5 and < 10) | < 100

— patent US20240391931A1 (Bristol-Myers Squibb Company, priority 2021, published 2024)
